Data published in ChEMBL document CHEMBL1143623, “Thyroid receptor ligands. 3. Design and synthesis of 3,5-dihalo-4-alkoxyphenylalkanoic acids as indirect antagonists of the thyroid hormone receptor” (J Med Chem, 2005).

Assays:
[1] = target: T1, Thyroid hormone receptor alpha (Homo sapiens, UniProt P10827); assay: Inhibitory activity against human TRAFalpha
T1 sequence (P10827 whole entry): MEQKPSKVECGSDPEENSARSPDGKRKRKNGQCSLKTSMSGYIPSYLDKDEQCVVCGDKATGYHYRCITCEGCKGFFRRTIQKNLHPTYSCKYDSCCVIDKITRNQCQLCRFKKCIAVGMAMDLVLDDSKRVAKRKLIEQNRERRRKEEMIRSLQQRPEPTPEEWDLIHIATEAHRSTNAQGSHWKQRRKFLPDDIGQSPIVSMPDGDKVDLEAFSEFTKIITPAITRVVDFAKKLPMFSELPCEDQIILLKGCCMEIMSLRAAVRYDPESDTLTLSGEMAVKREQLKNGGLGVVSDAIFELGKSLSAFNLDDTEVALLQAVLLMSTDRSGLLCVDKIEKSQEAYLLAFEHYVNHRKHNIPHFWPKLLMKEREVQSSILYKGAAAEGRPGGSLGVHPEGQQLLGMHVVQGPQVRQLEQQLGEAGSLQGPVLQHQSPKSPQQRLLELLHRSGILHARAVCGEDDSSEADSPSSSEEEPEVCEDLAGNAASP

[2] = target: T2, Thyroid hormone receptor beta (Homo sapiens, UniProt P10828); assay: Inhibitory activity against human TRAFbeta
T2 sequence (P10828 whole entry): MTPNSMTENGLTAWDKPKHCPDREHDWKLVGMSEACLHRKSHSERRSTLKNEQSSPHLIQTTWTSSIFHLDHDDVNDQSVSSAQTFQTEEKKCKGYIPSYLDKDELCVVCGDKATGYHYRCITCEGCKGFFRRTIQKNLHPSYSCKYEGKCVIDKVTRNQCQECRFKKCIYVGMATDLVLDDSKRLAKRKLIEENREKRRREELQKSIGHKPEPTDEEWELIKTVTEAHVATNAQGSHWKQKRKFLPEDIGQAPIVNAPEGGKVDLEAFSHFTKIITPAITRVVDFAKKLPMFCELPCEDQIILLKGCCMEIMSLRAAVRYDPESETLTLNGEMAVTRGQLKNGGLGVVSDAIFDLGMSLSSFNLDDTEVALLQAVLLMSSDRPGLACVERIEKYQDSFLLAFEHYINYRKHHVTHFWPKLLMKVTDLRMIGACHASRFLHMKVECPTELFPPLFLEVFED

[3] = target: T2, Thyroid hormone receptor beta; assay: Inhibitory activity against human Thyroid hormone receptor beta
[4] = target: T1, Thyroid hormone receptor alpha; assay: Inhibitory activity against human Thyroid hormone receptor alpha
[5] = target: T3, Thyroid hormone receptor (Homo sapiens, UniProt P10827+P10828); assay: Binding affinity for human Thyroid hormone receptor; assay type: protein-complex assay
T3 sequence (P10827 whole entry): T1 sequence (P10827 whole entry)
T3 sequence (P10828 whole entry): T2 sequence (P10828 whole entry)

Compound Cc1oc2ccccc2c1Cc1cc(I)c(OCC(=O)O)c(I)c1 has an IC50 [1] of 2200 nM and an IC50 [2] of 4100 nM.

Work on O=C(O)Cc1cc(Br)c(OCC2CCCCC2)c(Br)c1 yielded an IC50 [1] of 420 nM, an IC50 [2] of 520 nM and an IC50 [3] of 770 nM. It also gave an IC50 [4] of 2700 nM.

CCOc1c(Br)cc(CC(=O)O)cc1Br gave an IC50 [3] of 32000 nM and an IC50 [4] of 160000 nM.

In the case of CCC(CC)COc1c(Br)cc(CCC(=O)O)cc1Br, the IC50 [3] is reported as 810 nM and the IC50 [4] is reported as 1600 nM.

Compound O=C(O)CCc1cc(Br)c(OCC2CCCCC2)c(Br)c1 has an IC50 [1] of 530 nM, an IC50 [2] of 120 nM and an IC50 [3] of 190 nM. The IC50 [4] was 460 nM.

CCCCOc1c(Br)cc(CC(=O)O)cc1Br was tested, and the IC50 [3] was 1900 nM and the IC50 [4] was 26000 nM.

Compound CC(C)CCOc1c(Br)cc(CC(=O)O)cc1Br has an IC50 [3] of 18000 nM and an IC50 [4] of 13000 nM.

With CCCCCCOc1c(Br)cc(CC(=O)O)cc1Br the IC50 [1] was 700 nM, the IC50 [2] was 800 nM and the IC50 [3] was 1500 nM. For the same compound, the IC50 [4] was 5200 nM.

For CCCCCOc1c(Br)cc(CC(=O)O)cc1Br, the IC50 [3] was 5700 nM and the IC50 [4] was 20000 nM.

CC(C)c1cc(Oc2c(Br)cc(C(=O)O)cc2Br)cc(C(C)C)c1O showed an IC50 [1] of 1100 nM, a Ki [5] of 1380 nM and an IC50 [2] of 4500 nM.

For CCCCCCOc1c(Br)cc(CCC(=O)O)cc1Br, the IC50 [1] was 600 nM, the IC50 [2] was 1000 nM and the IC50 [3] was 360 nM. It also gave an IC50 [4] of 1100 nM.

With CC(C)CCOc1c(Br)cc(CCC(=O)O)cc1Br the IC50 [3] was 1800 nM and the IC50 [4] was 4400 nM.

CCC(CC)COc1c(Br)cc(CC(=O)O)cc1Br gave an IC50 [1] of 820 nM, an IC50 [2] of 700 nM and an IC50 [3] of 800 nM. It also gave an IC50 [4] of 6900 nM.

With CCCCc1oc2ccccc2c1C(=O)c1cc(I)c(CCN(CC)CC)c(I)c1 the IC50 [1] was > 10000 nM, the IC50 [2] was > 10000 nM and the IC50 [3] was 600 nM. The IC50 [4] was 650 nM.
